Experimental data reported in patent US20120065126A1, “Pharmaceutical Compositions Containing Antifungal Peptides” (BASF SE, priority 2009, published 2012).

Assays:
[1] = system: Candida albicans (DSM 11948); test: Short-term effect (CFU); format: cell-based
Description: (§1) For this purpose, the procedure was as follows.
YM growth medium (Becton, Dickinson and Company, Sparks, USA) 3 g of yeast extract 3 g of malt extract 5 g of peptone 10 g of dextrose make up to 1 liter, set pH 6.2
The growth test was effected as follows: 5 ml of YM medium were inoculated with C. albicans and incubated at 30° C. and 200 rpm overnight.
1.5 ml reaction vessels were filled with 1 ml each of YM medium and inoculated with the C. albicans suspension of the overnight culture. The resulting C. albicans suspension was set at the start of the experiment to an optical density, measured at 600 nm, of 0.1. The concentration of the peptide solution in water or ZPT solution (zinc pyrithione, >96%, Sigma Aldrich) dissolved in DMSO was 2% (w/w).
(§2) The following growth was compared: • C. albicans suspension and addition of P18 peptide with a final concentration in the 1.5 ml reaction vessel of 50 ppm after 5 minutes, 10 minutes, 20 minutes and 60 minutes • C. albicans suspension and addition of P18 peptide with a final concentration in the 1.5 ml reaction vessel of 100 ppm after 5 minutes, 10 minutes, 20 minutes and 60 minutes • C. albicans suspension and addition of P18 peptide with a final concentration in the 1.5 ml reaction vessel of 200 ppm after 5 minutes, 10 minutes, 20 minutes and 60 minutes • C. albicans suspension and addition of P18 peptide with a final concentration in the 1.5 ml reaction vessel of 500 ppm after 5 minutes, 10 minutes, 20 minutes and 60 minutes • C. albicans suspension and addition of P18 peptide with a final concentration in the 1.5 ml reaction vessel of 1000 ppm after 5 minutes, 10 minutes, 20 minutes and 60 minutes • C. albicans suspension and addition of ZPT with a final concentration in the 1.5 ml reaction vessel of 50 ppm after 5 minutes, 10 minutes, 20 minutes and 60 minutes • C. albicans suspension and addition of ZPT with a final concentration in the 1.5 ml reaction vessel of 100 ppm after 5 minutes, 10 minutes, 20 minutes and 60 minutes • C. albicans suspension and addition of ZPT with a final concentration in the 1.5 ml reaction vessel of 200 ppm after 5 minutes, 10 minutes, 20 minutes and 60 minutes • C. albicans suspension and addition of ZPT with a final concentration in the 1.5 ml reaction vessel of 500 ppm after 5 minutes, 10 minutes, 20 minutes and 60 minutes • C. albicans suspension and addition of ZPT with a final concentration in the 1.5 ml reaction vessel of 1000 ppm after 5 minutes, 10 minutes, 20 minutes and 60 minutes
(§3) The 1.5 ml reaction vessels were incubated at room temperature.
After the incubation times specified, the colony forming units (CFU) were determined by streaking 1 μl of each of the suspensions diluted in 20 μl of YM medium and, after incubation for 2 days, counting the colonies.

[2] = system: Staphylococcus epidermidis (DSM 1798); test: Short-term effect (CFU); format: cell-based; details: for Inhibition in words: up to 60 minutes
Description: as §1
TSBY growth medium: Ready-made TSB medium (Becton, Dickinson and Company, Sparks, USA); 17 g of pancreatin-degraded casein 3 g of pancreatin-degraded soya 2.5 g of dextrose 5 g of sodium chloride 2.5 g of dipotassium phosphate 3 g of yeast extract (Becton, Dickinson and Company, Sparks, USA) make up to 1 liter, set pH 7
The growth test was effected as follows: 5 ml of TSBY medium were inoculated with S. epidermidis and incubated at 37° C. and 200 rpm overnight.
1.5 ml reaction vessels were each filled with 1 ml of TSBY medium and inoculated with S. epidermidis suspension from the overnight culture. The S. epidermidis suspension was adjusted at the start of the experiment to an optical density, measured at 600 nm, of 0.1. The concentration of the peptide solution in water or ZPT solution (zinc pyrithione, >96%, Sigma Aldrich) dissolved in DMSO was 2% (w/w).
as §2, with “S. epidermidis” for “C. albicans”
as §3
After the incubation times specified, the colony forming units (CFU) were determined by streaking 1 μl of each of the suspensions diluted in 20 μl of TSBY medium and, after incubation for 2 days, counting the colonies.

“H-KWKLFKKIPKFLHLAKKF-NH2 [P18, H-KWKLFKKIPKFLHLAKKF-NH2]” was tested. Which “Colony forming units after the incubation time specified” value (“Colony forming units” below) ([1]; 50 ppm, 5 minutes) did it give?
Its value is 986 ± 280 CFU.

What about the “Colony forming units” value ([1]; 50 ppm, 10 minutes) of the same substance?
The value was 944 ± 209 CFU.

And the “Colony forming units” value ([1]; 50 ppm, 20 minutes)?
Its value is 954 ± 14 CFU.

And the “Colony forming units” value ([1]; 50 ppm, 60 minutes)?
The value was 518 ± 82 CFU.

What about the “Colony forming units” value ([1]; 100 ppm, 5 minutes) of the same substance?
The value was 718 ± 116 CFU.

What about the “Colony forming units” value ([1]; 100 ppm, 10 minutes) of the same substance?
Its value is 628 ± 112 CFU.

What about the “Colony forming units” value ([1]; 100 ppm, 20 minutes) of the same substance?
The value was 454 ± 127 CFU.

And the “Colony forming units” value ([1]; 100 ppm, 60 minutes)?
Its value is 25 ± 0 CFU.

What about the “Colony forming units” value ([1]; 200 ppm, 5 minutes) of the same substance?
The value was 242 ± 122 CFU.

And the “Colony forming units” value ([1]; 200 ppm, 10 minutes)?
The value was 72 ± 2 CFU.

And the “Colony forming units” value ([1]; 200 ppm, 20 minutes)?
The value was 29 ± 2 CFU.

And the “Colony forming units” value ([1]; 200 ppm, 60 minutes)?
The value was 1 ± 1 CFU.

What about the “Colony forming units” value ([1]; 500 ppm, 5 minutes) of the same substance?
Its value is 39 ± 1 CFU.

What about the “Colony forming units” value ([1]; 500 ppm, 10 minutes) of the same substance?
The value was 5 ± 6 CFU.

And the “Colony forming units” value ([1]; 500 ppm, 20 minutes)?
Its value is 1 ± 1 CFU.

And the “Colony forming units” value ([1]; 500 ppm, 60 minutes)?
Its value is 0 ± 0 CFU.

And the “Colony forming units” value ([1]; 1000 ppm, 5 minutes)?
Its value is 10 ± 2 CFU.

What about the “Colony forming units” value ([1]; 1000 ppm, 10 minutes) of the same substance?
The value was 1 ± 2 CFU.

What about the “Colony forming units” value ([1]; 1000 ppm, 20 minutes) of the same substance?
Its value is 0 ± 0 CFU.

And the “Colony forming units” value ([1]; 1000 ppm, 60 minutes)?
The value was 0 ± 0 CFU.

What about the “Colony forming units” value ([2]; 50 ppm, 5 minutes) of the same substance?
Its value is 221 ± 5 CFU.

What about the “Colony forming units” value ([2]; 50 ppm, 10 minutes) of the same substance?
Its value is 19 ± 3 CFU.

What about the “Colony forming units” value ([2]; 50 ppm, 20 minutes) of the same substance?
Its value is 4.75 ± 0.4 CFU.

And the “Colony forming units” value ([2]; 50 ppm, 60 minutes)?
Its value is 0.75 ± 0.4 CFU.

And the “Colony forming units” value ([2]; 100 ppm, 5 minutes)?
The value was 171 ± 219 CFU.

And the “Colony forming units” value ([2]; 100 ppm, 10 minutes)?
Its value is 6.5 ± 4.2 CFU.

And the “Colony forming units” value ([2]; 100 ppm, 20 minutes)?
The value was 0.5 ± 0 CFU.

And the “Colony forming units” value ([2]; 100 ppm, 60 minutes)?
The value was 0 ± 0 CFU.

What about the “Colony forming units” value ([2]; 200 ppm, 5 minutes) of the same substance?
The value was 14 ± 18 CFU.

What about the “Colony forming units” value ([2]; 200 ppm, 10 minutes) of the same substance?
The value was 5.75 ± 4.6 CFU.

And the “Colony forming units” value ([2]; 200 ppm, 20 minutes)?
The value was 0.25 ± 0.4 CFU.

And the “Colony forming units” value ([2]; 200 ppm, 60 minutes)?
The value was 0 ± 0 CFU.

And the “Colony forming units” value ([2]; 500 ppm, 5 minutes)?
Its value is 19 ± 22 CFU.

And the “Colony forming units” value ([2]; 500 ppm, 10 minutes)?
The value was 0.25 ± 0.4 CFU.

And the “Colony forming units” value ([2]; 500 ppm, 20 minutes)?
The value was 0.75 ± 1.1 CFU.

And the “Colony forming units” value ([2]; 500 ppm, 60 minutes)?
Its value is 0 ± 0 CFU.

What about the “Colony forming units” value ([2]; 1000 ppm, 5 minutes) of the same substance?
The value was 1.25 ± 0.4 CFU.

And the “Colony forming units” value ([2]; 1000 ppm, 10 minutes)?
Its value is 0 ± 0 CFU.

What about the “Colony forming units” value ([2]; 1000 ppm, 20 minutes) of the same substance?
The value was 0 ± 0 CFU.

What about the “Colony forming units” value ([2]; 1000 ppm, 60 minutes) of the same substance?
Its value is 0 ± 0 CFU.

For zinc pyrithione [ZPT], which Inhibition in words ([1]; 50-1000 ppm, up to 60 minutes) is on record?
Its Inhibition in words is “no significant inhibition”.

What about the “Colony forming units” value ([1]; 50 ppm, 5 minutes) of the same substance?
Its value is 830 ± 190 CFU.

And the “Colony forming units” value ([1]; 50 ppm, 10 minutes)?
Its value is 1096 ± 51 CFU.

And the “Colony forming units” value ([1]; 50 ppm, 20 minutes)?
The value was 986 ± 20 CFU.

What about the “Colony forming units” value ([1]; 50 ppm, 60 minutes) of the same substance?
Its value is 982 ± 93 CFU.

What about the “Colony forming units” value ([1]; 100 ppm, 5 minutes) of the same substance?
The value was 809 ± 100 CFU.

And the “Colony forming units” value ([1]; 100 ppm, 10 minutes)?
Its value is 1048 ± 74 CFU.

And the “Colony forming units” value ([1]; 100 ppm, 20 minutes)?
Its value is 806 ± 105 CFU.

And the “Colony forming units” value ([1]; 100 ppm, 60 minutes)?
Its value is 762 ± 212 CFU.

And the “Colony forming units” value ([1]; 200 ppm, 5 minutes)?
The value was 676 ± 204 CFU.

And the “Colony forming units” value ([1]; 200 ppm, 10 minutes)?
Its value is 906 ± 331 CFU.

What about the “Colony forming units” value ([1]; 200 ppm, 20 minutes) of the same substance?
Its value is 882 ± 190 CFU.

What about the “Colony forming units” value ([1]; 200 ppm, 60 minutes) of the same substance?
The value was 711 ± 125 CFU.

What about the “Colony forming units” value ([1]; 500 ppm, 5 minutes) of the same substance?
Its value is 863 ± 35 CFU.

What about the “Colony forming units” value ([1]; 500 ppm, 10 minutes) of the same substance?
The value was 832 ± 192 CFU.

And the “Colony forming units” value ([1]; 500 ppm, 20 minutes)?
Its value is 710 ± 71 CFU.

What about the “Colony forming units” value ([1]; 500 ppm, 60 minutes) of the same substance?
Its value is 617 ± 134 CFU.

What about the “Colony forming units” value ([1]; 1000 ppm, 5 minutes) of the same substance?
The value was 806 ± 20 CFU.

What about the “Colony forming units” value ([1]; 1000 ppm, 10 minutes) of the same substance?
Its value is 700 ± 153 CFU.

And the “Colony forming units” value ([1]; 1000 ppm, 20 minutes)?
Its value is 550 ± 88 CFU.

What about the “Colony forming units” value ([1]; 1000 ppm, 60 minutes) of the same substance?
Its value is 482 ± 69 CFU.

And the Inhibition in words ([2]; 50 ppm and 100 ppm)?
Its Inhibition in words is “low inhibition”.

And the “Colony forming units” value ([2]; 50 ppm, 5 minutes)?
Its value is 2000 ± 0 CFU.

What about the “Colony forming units” value ([2]; 50 ppm, 10 minutes) of the same substance?
Its value is 2000 ± 0 CFU.

And the “Colony forming units” value ([2]; 50 ppm, 20 minutes)?
Its value is 1033 ± 1368 CFU.

What about the “Colony forming units” value ([2]; 50 ppm, 60 minutes) of the same substance?
Its value is 522 ± 721 CFU.

And the “Colony forming units” value ([2]; 100 ppm, 5 minutes)?
Its value is 2000 ± 0 CFU.

And the “Colony forming units” value ([2]; 100 ppm, 10 minutes)?
The value was 2000 ± 0 CFU.

What about the “Colony forming units” value ([2]; 100 ppm, 20 minutes) of the same substance?
Its value is 1200 ± 1131 CFU.

And the “Colony forming units” value ([2]; 100 ppm, 60 minutes)?
Its value is 707 ± 698 CFU.

And the “Colony forming units” value ([2]; 200 ppm, 5 minutes)?
Its value is 2000 ± 0 CFU.

And the “Colony forming units” value ([2]; 200 ppm, 10 minutes)?
Its value is 2000 ± 0 CFU.

What about the “Colony forming units” value ([2]; 200 ppm, 20 minutes) of the same substance?
The value was 2000 ± 0 CFU.

And the “Colony forming units” value ([2]; 200 ppm, 60 minutes)?
The value was 2000 ± 0 CFU.

What about the “Colony forming units” value ([2]; 500 ppm, 5 minutes) of the same substance?
The value was 2000 ± 0 CFU.

And the “Colony forming units” value ([2]; 500 ppm, 10 minutes)?
Its value is 2000 ± 0 CFU.

What about the “Colony forming units” value ([2]; 500 ppm, 20 minutes) of the same substance?
Its value is 2000 ± 0 CFU.

What about the “Colony forming units” value ([2]; 500 ppm, 60 minutes) of the same substance?
Its value is 2000 ± 0 CFU.

And the “Colony forming units” value ([2]; 1000 ppm, 5 minutes)?
Its value is 2000 ± 0 CFU.

And the “Colony forming units” value ([2]; 1000 ppm, 10 minutes)?
Its value is 2000 ± 0 CFU.

And the “Colony forming units” value ([2]; 1000 ppm, 20 minutes)?
Its value is 2000 ± 0 CFU.

And the “Colony forming units” value ([2]; 1000 ppm, 60 minutes)?
The value was 2000 ± 0 CFU.

What about the Inhibition in words ([2]; higher concentrations (200-1000 ppm)) of the same substance?
The Inhibition in words was “no significant inhibition”.
